This assay deals with generation of leukotriene C4 (LT) from sliced lung of guinea pig. Kind of assay: Effect on generation of leukotriene C4 from sliced lung of guinea pig (passively sensitized, ovalbumin challenge). The format is cell-based, guinea pig (male Hartley). The note with it: 3 μM test compound, 10 min preincubation, ovalbumin 10 μg/ml, 15 min, 37° C.; for inhibition at 3 µM: Cavia porcellus, read-out: Percentage inhibition (leukotriene C4 (LTC4) liberation inhibition). Here is the method:
Effect on generation of leukotriene C4 (LT) from sliced lung of guinea pig
An antiovalbumin guinea pig serum (1/10 dilution; 0.5 ml/100 g) was intravenously injected into a male Hartley guinea pig (300-350 g) for passive sensitization. 16 to 18 hr after the passive sensitization, the blood was removed by circulation of the Tyrode solution and the lung was extirpated. The extirpated lung was cut into small pieces having a size of 1 mm×1 mm×1 mm while cooling the lung with ice. The pieces were washed, and 150 mg of the pieces was suspended on 1.8 ml of the Tyrode solution, followed by incubation at 37° C. for 5 min. A 3 μM test compound (the compound of the present invention) solution was added thereto, followed by incubation for 10 min. An antigen solution (ovalbumin; a final concentration of 10 μg/ml) was added thereto, followed by incubation for additional 15 min. The mixture was filtered through a nylon mesh. 100 μl of the filtrate was subjected to determination of the amount of leukotriene C4 (LTC4) with an RzA kit.
The percentage leukotriene C4 (LTC4) liberation inhibition of each compound (indicated by compound No. used in the Examples which will be described later) is shown in Table 1.

For the compound `Cc1c(O)c(C)c2sc(N)nc2c1C` [Compound 8, 6-hydroxy-2-amino-4,5,7-trimethylbenzothiazole], the inhibition at 3 µM was found to be 75%.

In the case of `Cc1c(O)c(C(C)C)c2sc(N)nc2c1C` [Compound 9], the inhibition at 3 µM worked out at 36%.

As to `CC(C)c1cc2nc(N)sc2c(C(C)C)c1O` [Compound 10], the inhibition at 3 µM worked out at 78%.

Regarding `Nc1nc2cc(Br)c(O)c(Br)c2s1` [Compound 13], the inhibition at 3 µM was 35%.

For the compound `Nc1nc2c(cc(O)c3ncccc32)s1` [Compound 17], the inhibition at 3 µM stood at 35%.

`Cc1ccc2sc(N)nc2c1O` [Compound 19]: the inhibition at 3 µM is 36%.

Turning to `Nc1nc2c(O)c(Cl)ccc2s1` [Compound 20], the inhibition at 3 µM turned out to be 33%.

`Nc1nc2c(O)c(Br)cc(Br)c2s1` [Compound 21]: the inhibition at 3 µM is 48%.

As to `Cc1c(O)c(C(C)(C)C)cc2nc(N)sc12` [Compound 22], the inhibition at 3 µM is 61%.

For `Cc1c(O)c(C)c2sc(NCC(C)C)nc2c1C` [Compound 24], the inhibition at 3 µM is 95%.

For `Cc1c(O)c(C)c2sc(NCC3CCCCC3)nc2c1C` [Compound 25], the inhibition at 3 µM was 36%.

Regarding `CCNc1nc2c(C)c(C)c(O)c(C)c2s1` [Compound 26], the inhibition at 3 µM stood at 85%.

As for `Cc1c(O)c(C)c2sc(NCc3ccc(N(C)C)cc3)nc2c1C` [Compound 28], the inhibition at 3 µM was 34%.

With `Cc1c(O)c(C)c2sc(NCc3ccc(NS(C)(=O)=O)cc3)nc2c1C` [Compound 29], the inhibition at 3 µM came out at 43%.

On to `Cc1c(O)c(C)c2sc(NCc3ccc(S(C)(=O)=O)cc3)nc2c1C` [Compound 30], for which the inhibition at 3 µM was 79%.

As to `Cc1c(O)c(C)c2sc(NCc3ccc(S(=O)(=O)N(CCO)CCO)cc3)nc2c1C` [Compound 31], the inhibition at 3 µM worked out at 62%.

Regarding `CCN(CC)S(=O)(=O)c1ccc(CNc2nc3c(C)c(C)c(O)c(C)c3s2)cc1` [Compound 32], the inhibition at 3 µM came to 44%.

`Cc1c(O)c(C)c2sc(NCc3ccc(S(=O)(=O)NCCO)cc3)nc2c1C` [Compound 33]: the inhibition at 3 µM is 46%.

In the case of `Cc1c(O)c(C)c2sc(NCc3ccc(S(N)(=O)=O)cc3)nc2c1C` [Compound 34, 6-hydroxy-2-(4-sulfamoylbenzylamino)-4,5,7-trimethyl-benzothiazole], the inhibition at 3 µM stood at 70%.

For `CCN(Cc1ccc(S(N)(=O)=O)cc1)c1nc2c(C)c(C)c(O)c(C)c2s1` [Compound 35], the inhibition at 3 µM is 68%.

In the case of `CC(C)c1cc2nc(NCc3ccc(S(N)(=O)=O)cc3)sc2c(C(C)C)c1O` [Compound 37], the inhibition at 3 µM came out at 39%.

For `CCN(Cc1ccc(S(N)(=O)=O)cc1)c1nc2cc(C(C)C)c(O)c(C(C)C)c2s1` [Compound 40], the inhibition at 3 µM came to 32%.

As for `Cc1c(O)c(C)c2sc(NC(=O)c3cccnc3)nc2c1C` [Compound 51], the inhibition at 3 µM is 56%.

For the compound `Cc1c(O)c(C)c2sc(NC(=O)C3CCCCC3)nc2c1C` [Compound 52], the inhibition at 3 µM came out at 62%.

Turning to `CC(=O)Nc1nc2c(C)c(C)c(O)c(C)c2s1` [Compound 53], the inhibition at 3 µM was 69%.

As for `Cc1c(O)c(C)c2sc(NC(=O)c3ccccc3)nc2c1C` [Compound 54], the inhibition at 3 µM came out at 58%.

With `Cc1c(O)c(C)c2sc(NC(=O)CN(C)C)nc2c1C` [Compound 57], the inhibition at 3 µM amounted to 42%.

Consider `Cc1c(O)c(C)c2sc(NC(=O)N(C)C)nc2c1C` [Compound 58], for which the inhibition at 3 µM is 64%.

As for `CCOC(=O)Nc1nc2c(C)c(C)c(O)c(C)c2s1` [Compound 59], the inhibition at 3 µM amounted to 71%.

Turning to `CCOC(=O)C(=O)Nc1nc2c(C)c(C)c(O)c(C)c2s1` [Compound 60], the inhibition at 3 µM was 36%.

Turning to `Cc1c(O)c(C)c2sc(NC(=O)C(=O)O)nc2c1C` [Compound 61], the inhibition at 3 µM amounted to 36%.

With `CCOC(=O)CCC(=O)Nc1nc2c(C)c(C)c(O)c(C)c2s1` [Compound 64], the inhibition at 3 µM is 32%.

Regarding `CC(C)c1cc2nc(NC(=O)N(C)C)sc2c(C(C)C)c1O` [Compound 68], the inhibition at 3 µM amounted to 70%.

For `Cc1c(O)c(C)c2sc(NS(C)(=O)=O)nc2c1C` [Compound 69], the inhibition at 3 µM came to 42%.

Take `Cc1c(O)c(C)c2sc(NS(=O)(=O)C(C)C)nc2c1C` [Compound 70]: the inhibition at 3 µM was 30%.

Take `Cc1c(O)c(C)c2sc(NS(=O)(=O)c3ccccc3)nc2c1C` [Compound 71]: the inhibition at 3 µM stood at 53%.

As to `CC(C)c1cc2nc(NS(=O)(=O)N(C)C)sc2c(C(C)C)c1O` [Compound 75], the inhibition at 3 µM was 50%.

As for `CC(C)c1c(O)c(C(C)C)c2sc(N)nc2c1Cl` [Compound 76], the inhibition at 3 µM was determined as 72%.

For the compound `NS(=O)(=O)c1ccc(CNc2nc3cc(Br)c(O)c(Br)c3s2)cc1` [Compound 86, 6-hydroxy-2-(4-sulfamoylbenzylamino)-5,7-dibromobenzothiazole], the inhibition at 3 µM amounted to 31%.

As to `NS(=O)(=O)c1ccc(CNc2nc3c(O)c(Br)cc(Br)c3s2)cc1` [Compound 87], the inhibition at 3 µM worked out at 32%.

`CCOC(=O)CCCNc1nc2c(C)c(C)c(O)c(C)c2s1` [Compound 88]: the inhibition at 3 µM was determined as 79%.

`Cc1c(O)c(C)c2sc(N3CCCC3=O)nc2c1C` [Compound 90]: the inhibition at 3 µM turned out to be 41%.

Consider `Cc1c(O)c(C)c2sc(NCCCC(=O)NC3CCCCC3)nc2c1C` [Compound 91], for which the inhibition at 3 µM was 53%.

For the compound `Cc1c(O)c(C)c2sc(N)nc2c1C` [Compound 92], where the note is “3 µM”, the “Percentage inhibition (leukotriene C4 (LTC4) liberation inhibition)” value was 64%.

On to `CNc1nc2c(C)c(C)c(O)c(C)c2s1` [Compound 93], for which the inhibition at 3 µM is 83%.

As for `Cc1c(O)c(C)c2sc(N(C)C)nc2c1C` [Compound 94], the inhibition at 3 µM is 79%.

`CCCCCNc1nc2c(C)c(C)c(O)c(C)c2s1` [Compound 95]: the inhibition at 3 µM is 72%.

Consider `CC(C)=CCNc1nc2c(C)c(C)c(O)c(C)c2s1` [Compound 96], for which the inhibition at 3 µM stood at 77%.

Consider `Cc1c(O)c(C)c2sc(Nc3ccc(O)cc3)nc2c1C` [Compound 98], for which the inhibition at 3 µM turned out to be 60%.

With `COc1ccc(Nc2nc3c(C)c(C)c(O)c(C)c3s2)cc1` [Compound 99], the inhibition at 3 µM came out at 43%.

For the compound `Cc1c(O)c(C)c2sc(Nc3ccc(C(=O)O)cc3)nc2c1C` [Compound 101, 6-hydroxy-2-(4-carboxylphenylamino)-4,5,7-trimethylbenzothiazole], the inhibition at 3 µM turned out to be 37%.

With `Cc1c(O)c(C)c2sc(Nc3ccc(S(N)(=O)=O)cc3)nc2c1C` [Compound 103], the inhibition at 3 µM came to 48%.

`Cc1c(O)c(C)c2sc(Nc3cc(Cl)c(O)c(Cl)c3)nc2c1C` [Compound 106]: the inhibition at 3 µM worked out at 49%.

For the compound `Cc1c(O)c(C)c2sc(Nc3ccc(CCC(=O)O)cc3)nc2c1C` [Compound 108], the inhibition at 3 µM was 30%.

As to `COc1c(O)c(C)c2sc(N)nc2c1OC` [Compound 110], the inhibition at 3 µM amounted to 41%.

Take `CC(C)c1cc2nc(Nc3ccc(C(=O)O)cc3)sc2c(C(C)C)c1O` [Compound 113, 6-hydroxy-2-(4-carboxylphenylamino)-5,7-diisopropylbenzothiazole]: the inhibition at 3 µM stood at 49%.

As to `CC(C)c1cc2nc(Nc3ccccc3)sc2c(C(C)C)c1O` [Compound 115], the inhibition at 3 µM worked out at 39%.

Turning to `CC(C)c1cc2nc(Nc3ccc(S(N)(=O)=O)cc3)sc2c(C(C)C)c1O` [Compound 122], the inhibition at 3 µM was 34%.

As to `CC(C)c1cc2nc(N(CCO)CCO)sc2c(C(C)C)c1O` [Compound 123], the inhibition at 3 µM turned out to be 71%.

With `CC(C)c1cc2nc(N3CCOCC3)sc2c(C(C)C)c1O` [Compound 124], the inhibition at 3 µM amounted to 72%.

Regarding `CC(C)c1cc2nc(NCc3ccccn3)sc2c(C(C)C)c1O` [Compound 126, 6-hydroxy-2-(2-pyridylmethylamino)-5,7-diisopropylbenzothiazole], the inhibition at 3 µM was 66%.

As to `CC(C)c1cc2nc(N3CCC(O)CC3)sc2c(C(C)C)c1O` [Compound 128], the inhibition at 3 µM came to 60%.

Take `Cc1c(O)c(C)c2sc(NCc3ccccc3)nc2c1C` [Compound 134]: the inhibition at 3 µM was 88%.

Regarding `Cc1c(O)c(C)c2sc(NCc3ccc(C(=O)O)cc3)nc2c1C` [Compound 135], the inhibition at 3 µM was found to be 41%.

Regarding `COC(=O)c1ccc(CNc2nc3c(C)c(C)c(O)c(C)c3s2)cc1` [Compound 136], the inhibition at 3 µM was determined as 67%.

In the case of `Cc1c(O)c(C)c2sc(NCc3ccc(Cl)cc3Cl)nc2c1C` [Compound 137], the inhibition at 3 µM came to 40%.

Turning to `Cc1c(O)c(C)c2sc(NCc3ccc(C(N)=O)cc3)nc2c1C` [Compound 141], the inhibition at 3 µM is 53%.

(Values after patent US4929623A, “Benzothiazole derivative” (Eisai Co., Ltd., priority 1987, dated 1990).)
